Among the data in PubChem BioAssay AID1845198 (Molecular Pharmacology Branch, DTP, NCI, 2023) are IC50 and viability, T/C values, retold here.

By IC50 is commonly meant the point on the concentration scale where inhibition reaches its midpoint. One may read the viability, T/C as the result in the treated group divided by that in the control group, in per cent.

This test has as its system 425362-245-T-J1 tumor spheroids, viability % test/control. In words: Anticancer human tumor 425362-245-T-J1 patient-derived melanoma cell line growth inhibition. Conditions: spheroids with HUVEC and MSC; for viability, T/C: stronger effect = lower value. The gist of the method:
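Complex tumor spheroids combined malignant cells with endothelial cells and mesenchymal stem cells. DNA-damaging drugs and DNA repair inhibitors were tested alone and in combination, at half-log dilutions down from clinical Cmax (top 10 microM if Cmax unknown), 0.25% DMSO final.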

The mark [1] stands for this setting: curve of first compound, second compound 0.003 µM.
Setting [2] is: second compound 0.003 µM, first compound 0.0316 µM.
Where [3] appears, read: second compound 0.003 µM, first compound 0.1 µM.
Setting [4] is: second compound 0.003 µM, first compound 0.316 µM.
The mark [5] stands for this setting: second compound 0.003 µM, first compound 1 µM.
Where [6] appears, read: second compound 0.003 µM, first compound 3.16 µM.
Where [7] appears, read: second compound 0.003 µM, first compound 10 µM.

Values joined by “and” are separate entries in the source; they are usually repeats but may differ in a detail not shown here. Identical values can stand only once.
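Further: spheroids exposed to agents for 7 days.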
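Wherever viability, T/C is given: 100% = DMSO vehicle control viability.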

For the compound `CC(C)n1c(=O)n(C)c2cnc3cc(F)c(-c4ccc(OCCCN5CCCCC5)nc4)cc3c21` + CC[C@@]1(O)C(=O)OCc2c1cc1n(c2=O)Cc2cc3c(CN(C)C)c(O)ccc3nc2-1, the IC50 by setting is: under setting [1], less than 31.6 nM; (curve of first compound, second compound 0.00949 µM) less than 31.6 nM; (curve of first compound, second compound 0.03 µM) less than 31.6 nM; (curve of first compound, second compound 0.0949 µM) less than 31.6 nM; (curve of first compound, second compound 0.3 µM) less than 31.6 nM. The viability, T/C is, setting by setting: under setting [2], 14.6%; under setting [3], 10.4%; under setting [4], 7.7%; under setting [5], 6.29%; under setting [6], 8.79%; under setting [7], 4.08%. Further, the viability, T/C runs as follows: (second compound 0.00949 µM, first compound 0.0316 µM) 6.58%; (second compound 0.00949 µM, first compound 0.1 µM) 4.04%; (second compound 0.00949 µM, first compound 0.316 µM) 3.89%; (second compound 0.00949 µM, first compound 1 µM) 3.22%; (second compound 0.00949 µM, first compound 3.16 µM) 3.36%; (second compound 0.00949 µM, first compound 10 µM) 2.89%. Moreover, the viability, T/C by setting is: (second compound 0.03 µM, first compound 0.0316 µM) 5.67%; (second compound 0.03 µM, first compound 0.1 µM) 4.26%; (second compound 0.03 µM, first compound 0.316 µM) 4.37%; (second compound 0.03 µM, first compound 1 µM) 4.1%; (second compound 0.03 µM, first compound 3.16 µM) 5.65%; (second compound 0.03 µM, first compound 10 µM) 2.47%. The viability, T/C (second compound 0.0949 µM, first compound 0.0316 µM) is 7.71%; the viability, T/C (second compound 0.0949 µM, first compound 0.1 µM) is 4.71%; the viability, T/C (second compound 0.0949 µM, first compound 0.316 µM) was 4.3%; the viability, T/C (second compound 0.0949 µM, first compound 1 µM) is 3.67%; the viability, T/C (second compound 0.0949 µM, first compound 3.16 µM) was 6.89%; the viability, T/C (second compound 0.0949 µM, first compound 10 µM) was 2.28%. The viability, T/C was 2.08% (second compound 0.3 µM, first compound 0.0316 µM); 2.15% (second compound 0.3 µM, first compound 0.1 µM); 1.84% (second compound 0.3 µM, first compound 0.316 µM); 1.73% (second compound 0.3 µM, first compound 1 µM); 1.54% (second compound 0.3 µM, first compound 3.16 µM); 1.56% (second compound 0.3 µM, first compound 10 µM).

For the compound `Cc1cc(C)c(CNC(=O)c2cc(-c3ccc(CN4CCOCC4)cc3)cc3c2cnn3C2CCCC2)c(=O)[nH]1` + COc1cc2c(cc1O)CCNC21CSC2c3c(OC(C)=O)c(C)c4c(c3C(COC1=O)N1C(O)C3Cc5cc(C)c(OC)c(O)c5C(C21)N3C)OCO4, the IC50 was more than 10000 nM (curve of first compound, second compound 30 pM); more than 10000 nM (curve of first compound, second compound 94.9 pM); less than 31.6 nM (curve of first compound, second compound 0.0003 µM); less than 31.6 nM (curve of first compound, second compound 0.000949 µM); less than 31.6 nM under setting [1]. Also, the viability, T/C is 81.9% (second compound 30 pM, first compound 0.0316 µM); 97.4% (second compound 30 pM, first compound 0.1 µM); 97.5% (second compound 30 pM, first compound 0.316 µM); 102% (second compound 30 pM, first compound 1 µM); 85.7% (second compound 30 pM, first compound 3.16 µM); 61.4% (second compound 30 pM, first compound 10 µM). The viability, T/C by setting is: (second compound 94.9 pM, first compound 0.0316 µM) 84.3%; (second compound 94.9 pM, first compound 0.1 µM) 87.3%; (second compound 94.9 pM, first compound 0.316 µM) 92.9%; (second compound 94.9 pM, first compound 1 µM) 88.2%; (second compound 94.9 pM, first compound 3.16 µM) 81.9%; (second compound 94.9 pM, first compound 10 µM) 64.3%. Also, the viability, T/C runs as follows: (second compound 0.0003 µM, first compound 0.0316 µM) 44.9%; (second compound 0.0003 µM, first compound 0.1 µM) 40%; (second compound 0.0003 µM, first compound 0.316 µM) 59.9%; (second compound 0.0003 µM, first compound 1 µM) 39.5%; (second compound 0.0003 µM, first compound 3.16 µM) 34.4%; (second compound 0.0003 µM, first compound 10 µM) 25.5%. For the same compound, the viability, T/C is, setting by setting: (second compound 0.000949 µM, first compound 0.0316 µM) 0.31%; (second compound 0.000949 µM, first compound 0.1 µM) 0.35%; (second compound 0.000949 µM, first compound 0.316 µM) 0.34%; (second compound 0.000949 µM, first compound 1 µM) 0.33%; (second compound 0.000949 µM, first compound 3.16 µM) 0.21%; (second compound 0.000949 µM, first compound 10 µM) 0.26%. The viability, T/C is 0.3% under setting [2]; 0.32% under setting [3]; 0.3% under setting [4]; 0.25% under setting [5]; 0.25% under setting [6]; 0.26% under setting [7].

Regarding `O=C(c1cc(Cc2n[nH]c(=O)c3ccccc23)ccc1F)N1CCN(C(=O)C2CC2)CC1`, the viability, T/C is 92.6% and 110% and 97.2% (compound 0.0949 µM); 82.7% and 97.3% and 92.5% (compound 0.3 µM); 73.7% and 88.9% and 75.7% (compound 0.949 µM); 41.4% and 60.6% and 45.6% (compound 3 µM); 12% and 18.8% and 18.9% (compound 9.49 µM); 7.13% and 11.4% and 9.39% (compound 30 µM). Also, the IC50 (curve of compound) was 2140 nM and 3840 nM and 2500 nM.

Turning to `COc1ccc([C@@H](O)c2cc(-c3ncnc4cc(N5CCOCC5)ccc34)c(F)cc2Cl)nn1`, the viability, T/C by setting is: (compound 0.0316 µM) 101% and 96.8% and 105%; (compound 0.1 µM) 92.6% and 110% and 104%; (compound 0.316 µM) 90.7% and 98.8% and 92.3%; (compound 1 µM) 65.5% and 76.1% and 72.6%; (compound 3.16 µM) 38% and 44.5% and 42.9%; (compound 10 µM) 18.8% and 22.8% and 19.7%. Besides, the IC50 (curve of compound) is 1930 nM and 2520 nM and 2400 nM.
